Where two headings read alike, the source gives them in different places.
How the values were obtained:
M1 muscarinic receptor = molecular target: T1, M1 muscarinic receptor (Homo sapiens, UniProt P11229); experiment: stimulation of cAMP, M1 CHO cells (M1Gs); assay type: cell-based; set-up: host or cells: CHO cells, stably transfected
T1 sequence (P11229 1-460): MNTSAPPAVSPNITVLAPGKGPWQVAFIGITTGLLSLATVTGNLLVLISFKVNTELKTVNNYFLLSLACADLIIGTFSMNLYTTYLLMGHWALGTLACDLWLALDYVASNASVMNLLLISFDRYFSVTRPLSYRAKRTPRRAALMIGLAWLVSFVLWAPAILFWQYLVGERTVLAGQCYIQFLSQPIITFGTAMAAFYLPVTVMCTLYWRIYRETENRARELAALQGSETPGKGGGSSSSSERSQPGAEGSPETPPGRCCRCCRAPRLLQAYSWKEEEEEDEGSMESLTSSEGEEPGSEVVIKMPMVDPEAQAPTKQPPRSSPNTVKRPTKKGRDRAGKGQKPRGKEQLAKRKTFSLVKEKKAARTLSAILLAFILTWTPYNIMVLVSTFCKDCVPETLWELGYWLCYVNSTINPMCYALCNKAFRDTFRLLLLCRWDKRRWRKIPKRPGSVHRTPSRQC
Method: Since activation of phospholipase C (PLC) via M2 and M4 receptors is weak, cells were transferred with G15 G-protein to facilitate coupling.
To determine level of cAMP, cells in suspension were pre-incubated for 1 h with 0.4 μM [^3H]adenine, washed, and incubated for 10 min in the presence of isobutylmethylxanthine and 10 μM forskolin. […] Incubation was ended by addition of 0.2 ml of 2.5 M HCl to the samples. Samples were applied to alumina columns (1.5 g of alumina per column), washed with 2 ml ammonium acetate (pH=7.0) and eluted from columns with 4 ml ammonium acetate and measured by liquid scintillation spectrometry. […] The incubation was stopped by addition of 0.5 ml of chloroform methanol HCl mixture (2:1:0.1). After separation of water and organic phases, 0.6 ml of water phase was applied to Dowex columns (1.5 g of Dowex per column), washed by 20 ml of 60 mM ammonium formate/5 mM sodium borate buffer and eluted from columns with 4 ml of 1M ammonium formate/0.1 formic acid buffer and measured by liquid scintillation spectrometry.
Measurements of the production of cAMP and inositol phosphates: Levels of second messengers cAMP and inositol phosphates were determined in radiochemical chromatography assays as described previously. To determine level of cAMP, cells in suspension were pre-incubated for 1 h with 0.4 μM [^3H]adenine, washed, and incubated for 10 min in the presence of isobutylmethylxanthine and 10 μM forskolin. […] Incubation was ended by addition of 0.2 ml of 2.5 M HCl to the samples. Samples were applied to alumina columns (1.5 g of alumina per column), washed with 2 ml ammonium acetate (pH=7.0) and eluted from columns with 4 ml ammonium acetate and measured by liquid scintillation spectrometry. […] For this purpose, new CHO cell lines stably expressing promiscuous G15 G-protein and M2 or M4 receptor were generated by transfection with pCMV/hygro vector and hygromycin selection. To determine the rate of formation of inositol phosphates IPX, suspended cells were pre-incubated with 0.1 μM [^3H]myo-inositol for 60 min, washed, and incubated with 10 mM LiCl for 15 min. […] The incubation was stopped by addition of 0.5 ml of chloroform methanol HCl mixture (2:1:0.1). After separation of water and organic phases, 0.6 ml of water phase was applied to Dowex columns (1.5 g of Dowex per column), washed by 20 ml of 60 mM ammonium formate/5 mM sodium borate buffer and eluted from columns with 4 ml of 1M ammonium formate/0.1 formic acid buffer and measured by liquid scintillation spectrometry.
For bi-phasic response, curves were inhibitory and stimulatory phase were fitted separately. Operational Model of Functional Agonism
[formula] where y is functional response at concentration of tested compound x, EMAX is maximal response of the system, KA is equilibrium dissociation constant and nH is slope factor. Eq. 5 was fitted to data from functional experiments. Eq. 5 was fitted to data by the two-step procedure described earlier. […] In the second step, Eq. 5 with EMAX fixed to the value determined in the first step was fitted to individual experimental data sets. Relative Intrinsic Activity
Muscarinic receptors are also able to stimulate non-preferential signalling pathways.

[1] = test system: brain cortex (rich in M1); experiment: accumulation of IPX in dissipated rat brain cortex; assay type: cell-based; details: in words
Method: Effects of compounds 6A and 7A were then measured ex vivo in dissipated rat tissues (FIG. 5). Accumulation of IPX was measured in dissipated brain cortex (rich in M1 & M3), submaxillary gland (M1 & M3), and ventral tegmental area (M5). Native tissues express about 10-times less muscarinic receptors than CHO cell lines. Accumulation of cAMP was measured in cerebellum (M2) and striatum (M4).
Rat dissipated tissues: Suspension of dissipated tissues from rat brain cortex, cerebellum, striatum, ventral tegmental area (VTA) and submaxillary glands was prepared as described previously in supplementary methods. Adult 8-weeks old male Wistar rats were scarified by cervical dislocation in accordance with current legislative and guidelines under permission of Czech Ministry of Agriculture 16OZ23113/2017-17214. Tissues were dissected immediately. Submaxillary glands were minced by scissors. Tissues were dispersed by incubation for 15 min at 37° C. in KHB supplemented with trypsin and trituration every 5 min. Large undissipated parts were removed by cell mesh. […]
Measurements of the production of cAMP and inositol phosphates: Levels of second messengers cAMP and inositol phosphates were determined in radiochemical chromatography assays as described previously. […] Samples were applied to alumina columns (1.5 g of alumina per column), washed with 2 ml ammonium acetate (pH=7.0) and eluted from columns with 4 ml ammonium acetate and measured by liquid scintillation spectrometry. […] After separation of water and organic phases, 0.6 ml of water phase was applied to Dowex columns (1.5 g of Dowex per column), washed by 20 ml of 60 mM ammonium formate/5 mM sodium borate buffer and eluted from columns with 4 ml of 1M ammonium formate/0.1 formic acid buffer and measured by liquid scintillation spectrometry.
To exclude the possibility that the observed effects of compounds 6A and 7A are the result of overexpression in the heterologous system, functional response to the compounds was measured ex vivo in dissipated native rat tissues. […] Accumulation of cAMP was measured in M2-rich cerebellum and M4-rich striatum.

[2] = M1Gs (↑cAMP), Table 8, relative to carbachol

Question: Which results are given for `O=C1CCCN1CC#CCN1CCCC1` [oxotremorine, reference compound]?
Answer: EC50 (M1 muscarinic receptor): 11.2 µM; E′MAX (M1 muscarinic receptor): 1.77 ± 0.08 fold increase; Kd (M1 muscarinic receptor): 15.8 µM; RAi (M1 muscarinic receptor): 3.91 ± 0.22; Δlog(τ/KA) (M1 muscarinic receptor): −0.59 ± 0.06; τ (M1 muscarinic receptor): 0.38 ± 0.04

Question: Which “accumulation of IPX” value [1] does the source give for `C[N+](C)(C)CCOC(N)=O` [carbachol, reference compound] here?
Answer: profound accumulation of IPX

Question: Which results are given for `C1=CCN(Cc2cccs2)CC1.Cl` [Compound 6A, 1-[(thiophen-2-yl)methyl]-1,2,3,6-tetrahydropyridin-1-ium chloride]?
Answer: accumulation of IPX [1]: negligible increase in IPX; RAi (M1 muscarinic receptor; [2]): 0

Question: Which “accumulation of IPX” value [1] does the source give for `C[N+]1(Cc2cccs2)CC=CCC1.[I-]` (centres unmarked) [Compound 7A, 1-methyl-1-[(thiophen-2-yl)methyl]-1,2,3,6-tetrahydropyridin-1-ium iodide] here?
Answer: negligible increase in IPX

Question: What about the RAi (M1 muscarinic receptor; [2]) of the same molecule?
Answer: 0

— patent US11591323B2, “Muscarinic agonists as non-steroidal and non-opioid analgesics and methods of use thereof” (Barry University, priority 2019, dated 2023)
